Measured values from patent US9738637B2, “Histone demethylase inhibitors” (Quanticel Pharmaceuticals, Inc., priority 2013, dated 2017).
Where a name gives a salt, the structure may show the parent alone.

Assays:
Jarid1A = Jarid1A (Homo sapiens (Human), UniProt P29375); assay: Jarid1A in vitro enzyme inhibition assay (TR-FRET); format: biochemical; details: H3K4me3-biotin peptide
Jarid1B = Jarid1B (Homo sapiens (Human), UniProt Q9UGL1); assay: Jarid1B in vitro enzyme inhibition assay (TR-FRET); format: biochemical; details: TR-FRET, H3K4me3-biotin peptide; read-out: IC50 Jarid1B
Sequence of Jarid1B (Q9UGL1 2-751): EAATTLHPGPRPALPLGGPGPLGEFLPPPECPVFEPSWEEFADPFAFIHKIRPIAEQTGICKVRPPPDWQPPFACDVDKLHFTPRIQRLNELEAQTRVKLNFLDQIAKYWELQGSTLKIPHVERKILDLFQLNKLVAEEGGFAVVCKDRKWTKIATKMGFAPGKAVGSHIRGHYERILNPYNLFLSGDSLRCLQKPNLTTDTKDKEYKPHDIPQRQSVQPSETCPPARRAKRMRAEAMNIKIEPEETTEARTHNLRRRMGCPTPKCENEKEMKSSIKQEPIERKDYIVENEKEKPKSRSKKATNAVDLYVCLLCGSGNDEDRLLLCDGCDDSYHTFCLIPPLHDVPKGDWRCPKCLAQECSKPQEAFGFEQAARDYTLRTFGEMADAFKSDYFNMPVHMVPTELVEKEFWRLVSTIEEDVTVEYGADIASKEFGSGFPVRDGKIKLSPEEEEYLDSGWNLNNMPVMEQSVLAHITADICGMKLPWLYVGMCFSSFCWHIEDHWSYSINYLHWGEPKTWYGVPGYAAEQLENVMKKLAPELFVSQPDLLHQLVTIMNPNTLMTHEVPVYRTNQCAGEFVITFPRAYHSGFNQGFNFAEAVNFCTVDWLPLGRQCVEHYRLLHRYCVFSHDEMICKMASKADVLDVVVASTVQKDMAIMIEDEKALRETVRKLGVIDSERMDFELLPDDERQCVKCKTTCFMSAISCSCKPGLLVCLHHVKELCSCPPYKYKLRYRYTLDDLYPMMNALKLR

JMJD2C = JMJD2C (Homo sapiens (Human), UniProt Q9H3R0); assay: JMJD2C in vitro enzyme inhibition assay (TR-FRET); format: biochemical; details: TR-FRET, H3K9me3-biotin peptide; read-out: IC50 JNJD2C
Sequence of JMJD2C (Q9H3R0 2-372): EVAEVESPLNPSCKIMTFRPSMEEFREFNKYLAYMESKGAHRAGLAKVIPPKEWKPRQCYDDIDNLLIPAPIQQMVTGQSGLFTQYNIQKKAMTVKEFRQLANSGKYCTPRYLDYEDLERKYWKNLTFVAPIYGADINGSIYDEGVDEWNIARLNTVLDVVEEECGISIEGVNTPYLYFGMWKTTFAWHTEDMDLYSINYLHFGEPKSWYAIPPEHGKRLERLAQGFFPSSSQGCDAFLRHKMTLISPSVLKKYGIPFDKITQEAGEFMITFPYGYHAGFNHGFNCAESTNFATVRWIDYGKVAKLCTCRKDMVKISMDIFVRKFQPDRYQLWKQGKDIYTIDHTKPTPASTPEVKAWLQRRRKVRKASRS

JMJD2A = JMJD2A (Homo sapiens (Human), UniProt O75164); assay: JMJD2A in vitro enzyme inhibition assay (TR-FRET); format: biochemical; details: H3K9me3-biotin peptide
Sequence of JMJD2A (O75164 1-350): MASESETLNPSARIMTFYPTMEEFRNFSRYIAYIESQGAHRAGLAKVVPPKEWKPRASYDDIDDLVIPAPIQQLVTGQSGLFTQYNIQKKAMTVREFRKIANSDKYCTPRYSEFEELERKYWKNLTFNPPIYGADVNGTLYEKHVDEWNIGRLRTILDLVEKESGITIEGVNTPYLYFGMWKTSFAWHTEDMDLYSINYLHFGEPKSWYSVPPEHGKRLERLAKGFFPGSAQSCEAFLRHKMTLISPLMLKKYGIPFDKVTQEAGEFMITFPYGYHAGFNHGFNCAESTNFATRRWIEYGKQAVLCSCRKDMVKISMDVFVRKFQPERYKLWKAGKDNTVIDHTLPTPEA
Procedure: This assay determines the ability of a test compound to inhibit Jarid1A, Jarid1B, JMJD2C, and JMJD2A demethylase activity.
Reaction product was determined quantitatively by TR-FRET after the addition of detection reagent Phycolink Streptavidin-allophycocyanin (Prozyme) and Europium-anti-di-methylated histone H3 lysine 9 (H3K9me2) antibody (PerkinElmer) in the presence of 5 mM EDTA in LANCE detection buffer (PerkinElmer) at a final concentration of 50 nM and 1 nM, respectively.
The assay reaction was initiated by the following: 2 μl of the mixture of 900 nM H3K9me3-biotin labeled peptide and 6 μM alpha-ketoglutaric acid with 2 μl of 11-point serial diluted inhibitor in 3% DMSO were added to each well of plate, followed by the addition of 2 μl of 6 nM JMJD2A to initiate the reaction. The reaction mixture was incubated at room temperature for 30 minutes, and terminated by the addition of 6 μl of 5 mM EDTA in LANCE detection buffer containing 100 nM Phycolink Streptavidin-allophycocyanin and 2 nM Europium-anti-H3K9me2 antibody.
The ability of the compounds disclosed herein to inhibit demethylase activity was quantified and the respective IC50 value was determined.

KDM5A and KDM5B = assay: In vitro cell-based assay, ZR-75-1 cell line: tri-methyl H3K4 immuno-blotting (cellular inhibition of KDM5A/B); details: ZR-75-1 breast cancer cells, 72 hours, read-out: IC50 ZR-75-1 cell-MOA
Description: This quantitative immuno-blotting assay measures the amount tri-methylated histone H3 at amino acid Lysine number 4, a specific substrate […] of the direct enzymatic activity of the histone demethylases KDM5A and KDM5B from extracts of the ZR-75-1 breast cancer cell line.
This assay is a fluorometric immunoassay for the quantification of tri-methyl H3K4 extracted from cells treated with test compound and is used as a measure of the cellular inhibition of KDM5A/B.
Cells were left in the presence of test compound for 72 hours. Extracts were prepared containing all of the cellular histone material using detergent based lysis and sonication methods. These lysates were subsequently normalized for total protein content using a colorimetric bicinchonic acid assay (MicroBCA Pierce/Thermo Scientific). Normalized cell extracts were then subjected to typical immuno-blotting procedures using NuPage reagents (Life Technologies). Electrophoretically separated histones were then transferred and immobilized using polyvinylidene difluoride membrane (Immobilon-FL Millipore). The amount of tri-methylated lysine 4 of histone H3 was detected using an antibody specific to the tri-methylated state (Cell Signaling Technologies) and quantified on an infrared imager using a densitometry software package (Odyssey CLx, Image Studio, Li-Cor). This background subtracted densitometry value was reported as a ration of the GAPDH amount for that sample and then calculated as a percent of the DMSO treated sample. The software package XL-fit (IDBS) was then used to calculate a relative IC50 value for the dilution series of a given test compound according to the equation: fit=(D+((Vmax*(x^n))/((x^n)+(Km^n)))).

Sequence of Jarid1A (P29375 1-1090): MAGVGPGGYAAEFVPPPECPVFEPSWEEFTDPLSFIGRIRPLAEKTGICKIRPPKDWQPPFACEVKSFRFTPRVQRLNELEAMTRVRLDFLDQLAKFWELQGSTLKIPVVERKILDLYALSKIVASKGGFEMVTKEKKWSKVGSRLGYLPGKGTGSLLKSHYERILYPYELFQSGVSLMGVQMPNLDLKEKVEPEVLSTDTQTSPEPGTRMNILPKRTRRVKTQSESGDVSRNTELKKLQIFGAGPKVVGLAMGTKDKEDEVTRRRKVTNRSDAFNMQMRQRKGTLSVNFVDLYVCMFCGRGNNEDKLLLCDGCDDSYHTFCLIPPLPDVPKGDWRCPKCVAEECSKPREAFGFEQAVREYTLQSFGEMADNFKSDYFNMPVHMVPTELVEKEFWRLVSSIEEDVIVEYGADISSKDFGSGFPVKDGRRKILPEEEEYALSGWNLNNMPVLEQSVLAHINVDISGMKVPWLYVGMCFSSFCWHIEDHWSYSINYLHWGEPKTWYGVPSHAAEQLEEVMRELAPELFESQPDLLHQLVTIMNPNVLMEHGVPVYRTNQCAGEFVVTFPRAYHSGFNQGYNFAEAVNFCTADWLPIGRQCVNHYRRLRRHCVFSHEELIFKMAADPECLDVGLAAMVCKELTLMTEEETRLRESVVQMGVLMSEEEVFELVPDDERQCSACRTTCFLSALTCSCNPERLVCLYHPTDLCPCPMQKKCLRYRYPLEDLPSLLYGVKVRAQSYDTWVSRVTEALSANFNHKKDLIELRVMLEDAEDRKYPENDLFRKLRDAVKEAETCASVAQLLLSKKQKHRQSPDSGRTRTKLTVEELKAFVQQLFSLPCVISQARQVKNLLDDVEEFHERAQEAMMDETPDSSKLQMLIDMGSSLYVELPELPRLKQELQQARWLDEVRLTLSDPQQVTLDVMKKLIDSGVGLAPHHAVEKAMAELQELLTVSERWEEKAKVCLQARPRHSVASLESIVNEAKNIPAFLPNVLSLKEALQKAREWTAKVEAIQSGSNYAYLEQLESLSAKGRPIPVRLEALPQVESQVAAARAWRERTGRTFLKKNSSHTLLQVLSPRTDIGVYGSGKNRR

IC50 (Jarid1A) [nM]	IC50 (Jarid1B) [nM]	IC50 (JMJD2C) [nM]	IC50 (JMJD2A) [nM]	IC50 (KDM5A and KDM5B) [µM]	SMILES
100 to 1000	100 to 1000	100 to 1000	100 to 1000	> 10	O=C(O)c1ccnc2cc(Cc3ccccc3)[nH]c12 [Example 7, 2-benzyl-1H-pyrrolo[3,2-b]pyridine-7-carboxylic acid, sodium salt]
< 100	< 100	< 100	< 100		O=C(O)c1ccnc2cc(C(=O)N3CCCC3)[nH]c12 [Example 99, 2-(pyrrolidin-1-ylcarbonyl)-1H-pyrrolo[3,2-b]pyridine-7-carboxylic acid]
1000 to 10000	1000 to 10000	< 100	< 100		O=C(O)c1ccnc2cc(Cc3ccc(F)c(F)c3)[nH]c12 [Example 126, 2-(3,4-difluorobenzyl)-1H-pyrrolo[3,2-b]pyridine-7-carboxylic acid]
1000 to 10000	1000 to 10000	< 100	100 to 1000		O=C(O)c1ccnc2cc(Cc3ccc(Cl)c(Cl)c3)[nH]c12 [Example 130, 2-(3,4-dichlorobenzyl)-1H-pyrrolo[3,2-b]pyridine-7-carboxylic acid]
1000 to 10000	1000 to 10000	100 to 1000	100 to 1000		O=C(O)c1ccnc2cc(Cc3cc(F)c(Cl)c(Cl)c3)[nH]c12 [Example 132, 2-(3,4-dichloro-5-fluorobenzyl)-1H-pyrrolo[3,2-b]pyridine-7-carboxylic acid]
1000 to 10000	100 to 1000	< 100	100 to 1000		Cc1cc(Cc2cc3nccc(C(=O)O)c3[nH]2)ccc1Cl [Example 134, 2-(4-chloro-3-methylbenzyl)-1H-pyrrolo[3,2-b]pyridine-7-carboxylic acid]
1000 to 10000	1000 to 10000	< 100	100 to 1000		O=C(O)c1ccnc2cc(Cc3ccc(Cl)c(C(F)(F)F)c3)[nH]c12 [Example 136, 2-[4-chloro-3-(trifluoromethyl)benzyl]-1H-pyrrolo[3,2-b]pyridine-7-carboxylic acid]
100 to 1000	< 100	< 100	1000 to 10000		O=C(O)c1ccnc2cc(Cc3ccc(Cl)c(OCC4CC4)c3)[nH]c12 [Example 138, 2-[4-chloro-3-(cyclopropylmethoxy)benzyl]-1H-pyrrolo[3,2-b]pyridine-7-carboxylic acid]
100 to 1000	< 100	< 100	100 to 1000		O=C(O)c1ccnc2cc(Cc3ccc(Cl)c(OC(F)(F)F)c3)[nH]c12 [Example 142, 2-[4-chloro-3-(trifluoromethoxy)benzyl]-1H-pyrrolo[3,2-b]pyridine-7-carboxylic acid]
